Values of other authors in article PMC10366102, “Dose escalation and expansion cohorts in patients with advanced breast cancer in a Phase I study of the CDK7-inhibitor samuraciclib” (Nature Communications, 2023).

Experiments:
[1] = tested on: PIK3CA-mutated HR+ advanced breast cancer; set-up: method as in PMID 33794206; details: PIK3CA mutation, post CDK4/6 inhibitor; cited from earlier work
[2] = tested on: HR+ metastatic breast cancer; set-up: method as in PMID 33230905; details: after CDK4/6 inhibitor; cited from earlier work

SMILES | Median PFS [1] [months] | Median duration of treatment [2] [months]
Cc1nc(NC(=O)N2CCC[C@H]2C(N)=O)sc1-c1ccnc(C(C)(C)C(F)(F)F)c1 [Alpelisib] | 7.3 | 
CO[C@H]1C[C@@H]2CC[C@@H](C)[C@@](O)(O2)C(=O)C(=O)N2CCCC[C@H]2C(=O)O[C@H]([C@H](C)C[C@@H]2CC[C@@H](OCCO)[C@H](OC)C2)CC(=O)[C@H](C)/C=C(\C)[C@@H](O)[C@@H](OC)C(=O)[C@H](C)C[C@H](C)/C=C/C=C/C=C/1C [everolimus] |  | 3.6
